In ChEMBL document CHEMBL3351249, “Potent cholesteryl ester transfer protein inhibitors of reduced lipophilicity: 1,1'-spiro-substituted hexahydrofuroquinoline derivatives” (J Med Chem, 2014):

How the values were obtained:
[1] = biological target: T1, Cholesteryl ester transfer protein (Homo sapiens, UniProt P11597); assay: Inhibition of human recombinant CETP by fluorescence transfer assay
T1 sequence (P11597 whole entry): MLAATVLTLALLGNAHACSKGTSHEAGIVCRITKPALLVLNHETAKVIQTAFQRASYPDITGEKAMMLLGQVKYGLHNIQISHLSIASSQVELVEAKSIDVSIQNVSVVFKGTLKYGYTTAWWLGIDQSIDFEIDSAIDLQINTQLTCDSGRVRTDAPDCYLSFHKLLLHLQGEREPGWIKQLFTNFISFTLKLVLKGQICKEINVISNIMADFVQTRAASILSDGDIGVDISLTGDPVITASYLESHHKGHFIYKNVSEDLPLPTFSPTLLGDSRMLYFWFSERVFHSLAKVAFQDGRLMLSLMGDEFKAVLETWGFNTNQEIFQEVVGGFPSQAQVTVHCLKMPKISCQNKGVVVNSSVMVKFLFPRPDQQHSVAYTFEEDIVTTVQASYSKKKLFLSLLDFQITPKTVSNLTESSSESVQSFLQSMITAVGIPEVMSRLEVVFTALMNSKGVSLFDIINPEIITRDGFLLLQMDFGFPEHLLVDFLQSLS

[2] = Terminal elimination half life in healthy human administered as single oral dose; type: ADME, organism-based; details: in vivo, read-out: beta t1/2 (converted)

Row | Compound | IC50 [1] | half-life [2]
1 | CC(C)c1nc2c(c3c1[C@@H](c1ccc(C(F)(F)F)nc1)OC31CCCC1)[C@@H](O)CC(C)(C)C2 | 135 nM | –
2 | Cc1cc(C)c2c(c1)[C@@H](N(Cc1cc(C(F)(F)F)cc(C(F)(F)F)c1)c1nnn(C)n1)CCCN2C[C@H]1CC[C@H](C(=O)O)CC1 [EVACETRAPIB] | – | 44 h
3 | CC(C)c1nc2c(c3c1[C@H](c1ccc(C(F)(F)F)cc1)OC31CCOCC1)[C@H](O)CC(C)(C)C2 | 576 nM | –

Further compounds by falling IC50 [1], results first:

Row | IC50 [1] | half-life [2] | Compound
4 | 548 nM | – | CC(C)c1nc2c(c3c1[C@@H](c1ccc(C(F)(F)F)cc1)OC3(C)C)[C@@H](O)CC(C)(C)C2
5 | 96 nM | – | CC(C)c1nc2c(c3c1[C@@H](c1ccc(C(F)(F)F)cn1)OC31CCCC1)[C@@H](O)CC(C)(C)C2
6 | 29 nM | – | CC(C)c1nc2c(c3c1[C@@H](c1ccc(C(C)(C)C)cc1)OC31CCCC1)[C@@H](O)CC(C)(C)C2
